Test results taken from patent EP2366431A1, “Myeloperoxidase as a target in atrial fibrillation” (Universitätsklinikum Hamburg-Eppendorf, priority 2010, dated 2011).

Tests used:
[1] = system: Langendorff perfused hearts from WT and Mpo^-/- mice; test: Epicardial mapping of Langendorff-perfused hearts; conditions: atria from AngII treated Mpo^-/- mice, in contrast to AngII challenged WT mice
Protocol: (§1) Angiotensin II and myeloperoxidase treatment of mice. We treated male C57BL/6J (WT) and MPOtmllus mice (Mpo^-/^-) on a C57BL/6 background, aged 12-15 weeks, via ALZET osmotic pumps with angiotensin II (AngII, 1.5 ng/g body weight/minute) or saline (vehicle) for 14 days prior to electrophysiological investigation (EPI). We treated another cohort of WT and Mpo^-/- mice via ALZET osmotic pumps with a connected jugular catheter with recombinant MPO (5.0, 12.5 and 50 pg/g body weight/minute, which we calculated to generate physiological plasma levels of MPO ranging between 100 and 1100 pM, respectively) or recombinant human serum albumin (HSA) for 7 days in combination with either AngII or saline prior to EPI. Animal experiments, conformed with the Guide for the Care and Use of Laboratory Animals published by the US National Institutes of Health and were approved by the review board of Hamburg and Bonn.
Epicardial mapping of Langendorff-perfused hearts. We determined spontaneous and stimulated myocardial conduction velocities and characteristics of Langendorff perfused hearts by epicardial activation mapping using a 128-electrodearray^21.

[2] = system: WT and Mpo^-/- mice; test: Radiotelemetric blood pressure measurements; assay type: in vivo; conditions: AngII, Mpo^-/- mice compared with WT mice
Protocol: as §1
Radiotelemetric blood pressure measurements. We performed blood pressure measurements as previously^36. In brief, we inserted the tip of the telemetry device (TA11 PA-C10; Data Sciences International, St. Paul, USA) into the carotid lumen. After 10 days, data acquisition started for 1 minute every 5 minutes for 3 days. […] We recorded blood pressure and heart rate for the following week in MPO treated mice and two weeks in AngII treated animals, respectively.

[3] = system: WT and Mpo^-/- mice; test: Electrophysiological investigation (EPI), induction of AF by right atrial stimulation, surface ECG; assay type: in vivo
Protocol: as §1
Electrophysiological investigation (EPI). We examined mice electrophysiologically using a single catheter technique ^19,32. We analyzed standard ECG-parameters obtained by a 6-lead-surface-ECG. EPI included transvenous atrial and ventricular recording and stimulation^21. For induction of AF, we performed atrial and ventricular burst and programmed atrial stimulations. We defined atrial fibrillation as rapid and fragmented atrial electrograms with irregular AV-nodal conduction for >1 s. AF-episodes persisting >1 min were classified as sustained AF. Number, duration, and probability of inducible AF-episodes were analyzed.

[4] = system: WT mice; test: MPO content in mouse plasma and atrial tissue (ELISA) after angiotensin II infusion; assay type: in vivo; conditions: 2 week subcutaneous infusion of AngII
Protocol: as §1
Assessment of MPO content in human and mouse plasma and atrial tissue. We determined MPO levels by ELISA (human: Prognostix, Cleveland, USA; mouse: hycult biotechnology, The Netherlands).

With “angiotensin II (DRVYIHPF; Angiotensin-2; UniProt P01019 25-32, looked up) [AngII]” the conduction velocity [1] was “no retardation in conduction velocity”, the “blood pressure elevating effect” value [2] was “blunted” and the “inducibility of AF” value ([3]; Mpo^-/- mice, AngII for 14 days) was “did not affect the inducibility of AF”. The “susceptibility for AF (number and duration of AF-episodes, probability of AF induction)” value ([3]; WT mice, AngII for 14 days, right atrial electrophysiological stimulation) was “higher susceptibility for AF”, the P wave duration ([3]; WT mice, AngII treatment, in vivo surface ECG, p<0.001) was “significant prolongation” and the “myocardial deposition of MPO” value [4] was “elevated”. For the same substance, the “circulating MPO plasma levels” value ([4]; 1.5 ng/g body weight/minute) was “substantially increased”.
